Like-named read-outs stand apart in the source and are kept apart here. Blank lines part the entries; values can stand above or below the molecule they belong to.
Target: HIV-1 protease (Human immunodeficiency virus type 1 group M subtype B, UniProt P03369)
Experiment: biochemical
Procedure: HIV-1 protease activity was measured at 37° C. using a continuous fluorimetric assay based on the method of Toth et al., (Toth et al., 1990, Int. J. Pept. Res. 36 544-550). The substrate, 2-aminobenzoyl-threonine-isoleucine-norleucine-(p-nitro)-phenylalanine-glutamine-arginine-NH2 (Abz-NF^* -6), was synthesised by solid phase peptide synthesis (Kent et al., 1991, In: Peptides 1990: Proceedings of the Twenty-First European Peptide Symposium (Girault, E. and Andrew, D. eds.) pp 172-173, ESCOM, Leiden). Enzyme activity was measured as the increase in fluorescence intensity upon substrate hydrolysis. The change in fluorescence intensity was monitored with a Perkin Elmer LS50B luminescence spectrometer fitted with a thermostatted micro cuvette holder. Measurements were carried out using an excitation wavelength of 320 nm (bandwith 5 nm) and an emission wavelength of […] (bandwith 5 nm).
Inhibition assays were routinely carried out at pH 6.5 and μ=0.1 M using a single substrate concentration. The assay mixtures contained 50 μM Abz-NF^* -6 in 100 mM 2-(N-morpholino)ethanesulphonate buffer, containing 10% (v/v) glycerol and 50 μg/ml bovine serum albumin, in a total final volume of 400 μl. Where inhibitors had to be dissolved in dimethyl sulphoxide or other organic solvents, the final concentration of solvent in the control and inhibition assays were kept absolutely constant because of the severe inhibitory effect of some solvents on the enzyme activity (Bergman et al., 1992, 17th Ann. Lorne Conf. on Protein Struct. and Funct. Abstr.). In all assays, the reaction was initiated by the addition of 10 μl of enzyme solution.

[1] = Table 1, pH 6.5, 37° C., read-out: IC50
[2] = Table 2, pH 6.5, 37° C., read-out: IC50
[3] = Table 4, rac (R and S isomer together), read-out: IC50
[4] = Table 5, pH 6.5, 37° C., read-out: IC50

Compound: CC[C@H](C)[C@H](NC(=O)[C@@H]1CCCN1C[C@@H](O)[C@@H]1Cc2ccc(cc2)OCCCC(=O)N[C@@H](CC(N)=O)C(=O)N1)C(=O)N[C@H](C(N)=O)C(C)C [Compound 2]
- IC50: 1.58 µM

Compound: CC[C@H](C)[C@H](NC(=O)[C@@H]1CCCN1C[C@H](O)[C@@H]1Cc2ccc(cc2)OCCCC(=O)N[C@@H](CC(N)=O)C(=O)N1)C(=O)N[C@H](C(N)=O)C(C)C [Compound 3, [2(S),11'(S),8'(S)]-2-[11'-[6',9'-dioxo-8'-(ethanamide)-2'-oxa-7',10'-diazabicyclo[11.2.2]heptadeca-13',15',16'-triene]]-1-(N-(S)-prolyl-(S)-isoleucyl-(S)-valine amide)ethan-2-ol]
- IC50: 0.039 µM
- protease inhibition, stated in words: successfully functionally mimicked compound 1

Compound: CC[C@H](C)[C@H](NC(=O)[C@@H]1CCCN1C[C@@H](O)[C@@H]1Cc2ccc(cc2)OCCNCC(=O)N[C@@H](CC(N)=O)C(=O)N1)C(=O)N[C@H](C(N)=O)C(C)C [Compound 8]
- IC50 [1]: 0.7 µM

Compound: CC[C@H](C)[C@H](NC(=O)[C@@H]1CCCN1C[C@H](O)[C@@H]1Cc2ccc(cc2)OCCNCC(=O)N[C@@H](CC(N)=O)C(=O)N1)C(=O)N[C@H](C(N)=O)C(C)C [Compound 9]
- IC50 [1]: 0.037 µM

Compound: CC[C@H](C)[C@H](NC(=O)[C@@H]1CCCN1C[C@H](O)[C@@H]1Cc2ccc(cc2)OCC(=O)N[C@@H](Cc2ccc(O)cc2)C(=O)N[C@@H](CC(N)=O)C(=O)N1)C(=O)N[C@H](C(N)=O)C(C)C [Compound 18]
- IC50: 0.038 µM

Compound: CC[C@H](C)[C@H](NC(=O)[C@@H]1CCCN1C[C@@H](O)[C@@H]1Cc2ccc(cc2)OCC(=O)N[C@@H](Cc2ccc(O)cc2)C(=O)N[C@@H](CC(N)=O)C(=O)N1)C(=O)N[C@H](C(N)=O)C(C)C [Compound 19]
- IC50: 0.165 µM

Compound: CC[C@H](C)[C@H](NC(=O)[C@@H]1CCCN1C[C@H](O)[C@@H]1Cc2ccc(cc2)OCC(=O)N[C@@H](Cc2cnc[nH]2)C(=O)N[C@@H](CC(N)=O)C(=O)N1)C(=O)N[C@H](C(N)=O)C(C)C [Compound 20]
- IC50 (pH 6.5): 0.026 µM

Compound: CC[C@H](C)[C@H](NC(=O)[C@@H]1CCCN1C[C@@H](O)[C@@H]1Cc2ccc(cc2)OCC(=O)N[C@@H](Cc2cnc[nH]2)C(=O)N[C@@H](CC(N)=O)C(=O)N1)C(=O)N[C@H](C(N)=O)C(C)C [Compound 21]
- IC50 (pH 6.5): 0.339 µM

Compound: CC[C@H](C)[C@H](NC(=O)[C@@H]1CCCN1C[C@H](O)[C@@H]1Cc2ccc(cc2)OCC(=O)N[C@@H](CCCNC(=N)N)C(=O)N[C@@H](CC(N)=O)C(=O)N1)C(=O)N[C@H](C(N)=O)C(C)C [Compound 22]
- IC50 (pH 6.5): 0.042 µM

Compound: CC[C@H](C)[C@H](NC(=O)[C@@H]1CCCN1C[C@@H](O)[C@@H]1Cc2ccc(cc2)OCC(=O)N[C@@H](CCCNC(=N)N)C(=O)N[C@@H](CC(N)=O)C(=O)N1)C(=O)N[C@H](C(N)=O)C(C)C [Compound 23]
- IC50 (pH 6.5): 0.049 µM

Compound: CC[C@H](C)[C@H](NC(=O)[C@@H]1CCCN1C[C@@H](O)[C@@H]1Cc2ccc(cc2)OCC(=O)N[C@H](CCC(N)=O)C(=O)N[C@@H](CC(N)=O)C(=O)N1)C(=O)N[C@H](C(N)=O)C(C)C [Compound 24]
- IC50: 0.04 µM

Compound: CC[C@H](C)[C@H](NC(=O)[C@@H]1CCCN1C[C@H](O)[C@@H]1Cc2ccc(cc2)OCC(=O)N[C@H](CCC(N)=O)C(=O)N[C@@H](CC(N)=O)C(=O)N1)C(=O)N[C@H](C(N)=O)C(C)C [Compound 25]
- IC50: 0.04 µM

Compound: CC(C)(C)NC(=O)CN(Cc1ccccc1)C[C@@H](O)[C@@H]1Cc2ccc(cc2)OCCCC(=O)N[C@@H](CC(N)=O)C(=O)N1 [Compound 28]
- IC50: 1.5 µM

Compound: CC(C)(C)NC(=O)CN(Cc1ccccc1)C[C@H](O)[C@@H]1Cc2ccc(cc2)OCCCC(=O)N[C@@H](CC(N)=O)C(=O)N1 [Compound 29]
- IC50: 46 µM

Compound: CC(C)CNC(=O)C(Cc1ccccc1)NC[C@@H](O)[C@@H]1Cc2ccc(cc2)OCCCC(=O)N[C@@H](CC(N)=O)C(=O)N1 (stereo partly drawn) [Compound 34]
- IC50: 5.2 µM

Compound: CC(C)CNC(=O)C(Cc1ccccc1)NC[C@H](O)[C@@H]1Cc2ccc(cc2)OCCCC(=O)N[C@@H](CC(N)=O)C(=O)N1 (stereo partly drawn) [Compound 35]
- IC50: 5.2 µM

Further lines, with some results ahead:

- IC50 (read-out: IC50): 9.5 µM
Compound: CC[C@H](C)[C@H](NC(=O)[C@@H]1CCCN1C[C@@H](O)[C@@H]1Cc2ccc(cc2)OCCCC(=O)N[C@@H](CC(N)=O)C(=O)N1)C(N)=O [Compound 4]

- protease inhibition, stated in words: reduced potency
- IC50 (read-out: IC50): 0.85 µM
Compound: CC[C@H](C)[C@H](NC(=O)[C@@H]1CCCN1C[C@H](O)[C@@H]1Cc2ccc(cc2)OCCCC(=O)N[C@@H](CC(N)=O)C(=O)N1)C(N)=O [Compound 5]

- IC50 [1]: 55 µM
Compound: NC(=O)C[C@@H]1NC(=O)CCCOc2ccc(cc2)C[C@@H]([C@H](O)CN2CCC[C@H]2C(N)=O)NC1=O [Compound 6]

- protease inhibition, stated in words: reduced potency
- IC50 [1]: 120 µM
Compound: NC(=O)C[C@@H]1NC(=O)CCCOc2ccc(cc2)C[C@@H]([C@@H](O)CN2CCC[C@H]2C(N)=O)NC1=O [Compound 7]

- IC50 [1]: 0.6 µM
Compound: CC[C@H](C)[C@H](NC(=O)[C@@H]1CCCN1C[C@@H](O)[C@@H]1Cc2ccc(cc2)OCC(O)C(O)C(=O)N[C@@H](CC(N)=O)C(=O)N1)C(=O)N[C@H](C(N)=O)C(C)C (stereo partly drawn) [Compound 10]
- protease inhibition, stated in words: no improvement was observed in potency compared to 3 or 9

- IC50 [1]: 0.049 µM
Compound: CC[C@H](C)[C@H](NC(=O)[C@@H]1CCCN1C[C@H](O)[C@@H]1Cc2ccc(cc2)OCC(O)C(O)C(=O)N[C@@H](CC(N)=O)C(=O)N1)C(=O)N[C@H](C(N)=O)C(C)C (stereo partly drawn) [Compound 11]
- protease inhibition, stated in words: no improvement was observed in potency compared to 3 or 9

- IC50 [2]: 0.165 µM
Compound: CC[C@H](C)[C@H](NC(=O)[C@@H]1CCCN1C[C@@H](O)[C@@H]1Cc2ccc(cc2)OCCCCC(=O)N[C@@H](CC(N)=O)C(=O)N1)C(=O)N[C@H](C(N)=O)C(C)C [Compound 12]

- protease inhibition, stated in words: no dramatic increase in potency
- IC50 [2]: 0.026 µM
Compound: CC[C@H](C)[C@H](NC(=O)[C@@H]1CCCN1C[C@H](O)[C@@H]1Cc2ccc(cc2)OCCCCC(=O)N[C@@H](CC(N)=O)C(=O)N1)C(=O)N[C@H](C(N)=O)C(C)C [Compound 13]

- protease inhibition, stated in words: slightly reduced potency
- IC50 [2]: 0.35 µM
Compound: CCOC(=O)CCCOc1ccc(C[C@H](NC(=O)[C@H](CC(N)=O)NC(C)=O)[C@H](O)CN2CCC[C@H]2C(=O)N[C@H](C(=O)N[C@H](C(N)=O)C(C)C)[C@@H](C)CC)cc1 [Compound 14]

- protease inhibition, stated in words: slightly reduced potency
- IC50 [2]: 0.045 µM
Compound: CCOC(=O)CCCOc1ccc(C[C@H](NC(=O)[C@H](CC(N)=O)NC(C)=O)[C@@H](O)CN2CCC[C@H]2C(=O)N[C@H](C(=O)N[C@H](C(N)=O)C(C)C)[C@@H](C)CC)cc1 [Compound 15]

- protease inhibition, stated in words: activity was instead reduced
- IC50 [2]: 122 µM
Compound: CC[C@H](C)[C@H](NC(=O)[C@@H]1CCCN1C[C@@H](O)[C@@H]1CSSCC(NC(C)=O)C(=O)NCC(=O)N[C@@H](CC(N)=O)C(=O)N1)C(=O)N[C@H](C(N)=O)C(C)C (stereo partly drawn) [Compound 16]

- protease inhibition, stated in words: activity was instead reduced
- IC50 [2]: 28 µM
Compound: CC[C@H](C)[C@H](NC(=O)[C@@H]1CCCN1C[C@H](O)[C@@H]1CSSCC(NC(C)=O)C(=O)NCC(=O)N[C@@H](CC(N)=O)C(=O)N1)C(=O)N[C@H](C(N)=O)C(C)C (stereo partly drawn) [Compound 17]

- protease inhibition, stated in words: only μM instead of nM
- IC50 (read-out: IC50): 1.7 µM
Compound: CC(C)CN(CC(=O)NC(C)(C)C)C[C@@H](O)[C@@H]1Cc2ccc(cc2)OCCCC(=O)N[C@@H](CC(N)=O)C(=O)N1 [Compound 26]

- protease inhibition, stated in words: only μM instead of nM
- IC50 (read-out: IC50): 1.9 µM
Compound: CC(C)CN(CC(=O)NC(C)(C)C)C[C@H](O)[C@@H]1Cc2ccc(cc2)OCCCC(=O)N[C@@H](CC(N)=O)C(=O)N1 [Compound 27]

- IC50 [3]: 70 µM
Compound: CC(C)(C)NC(=O)C(Cc1ccccc1)NC[C@@H](O)[C@@H]1Cc2ccc(cc2)OCCCC(=O)N[C@@H](CC(N)=O)C(=O)N1 (stereo partly drawn) [Compound 30]

- IC50 [3]: 70 µM
Compound: CC(C)(C)NC(=O)C(Cc1ccccc1)NC[C@H](O)[C@@H]1Cc2ccc(cc2)OCCCC(=O)N[C@@H](CC(N)=O)C(=O)N1 (stereo partly drawn) [Compound 31]

- IC50 [3]: 42 µM
Compound: CC(C)NC(=O)C(Cc1ccccc1)NC[C@@H](O)[C@@H]1Cc2ccc(cc2)OCCCC(=O)N[C@@H](CC(N)=O)C(=O)N1 (stereo partly drawn) [Compound 32]

- IC50 [3]: 42 µM
Compound: CC(C)NC(=O)C(Cc1ccccc1)NC[C@H](O)[C@@H]1Cc2ccc(cc2)OCCCC(=O)N[C@@H](CC(N)=O)C(=O)N1 (stereo partly drawn) [Compound 33]

- protease inhibition, stated in words: much less active than 38 & 39
- IC50 [4]: 7.05 µM
Compound: CCOC(=O)CCCOc1ccc(C[C@H](NC(=O)[C@H](CC(N)=O)NC(=O)OC(C)(C)C)[C@H](O)CN2CCC[C@H]2C(=O)NC(C)(C)C)cc1 [Compound 36]

- protease inhibition, stated in words: much less active than 38 & 39
- IC50 [4]: 22 µM
Compound: CCOC(=O)CCCOc1ccc(C[C@H](NC(=O)[C@H](CC(N)=O)NC(=O)OC(C)(C)C)[C@@H](O)CN2CCC[C@H]2C(=O)NC(C)(C)C)cc1 [Compound 37]

- IC50 (read-out: IC50): 0.194 µM
Compound: CC(C)(C)NC(=O)[C@@H]1CCCN1C[C@@H](O)[C@@H]1Cc2ccc(cc2)OCCCC(=O)N[C@@H](CC(N)=O)C(=O)N1 [Compound 38]

— patent publication US6043357A, “HIV protease inhibitors” (The University of Queensland, priority 1994, dated 2000)
